The values that follow come from patent US7022484B2, “Methods for treating neuropathological states and neurogenic inflammatory states and methods for identifying compounds useful therein” (Board of Regents, The University of Texas System, priority 2000, dated 2006).

Assay [1] deals with NMDA receptor subunit NR1. Nature of the assay: Immunocytochemical localization of NMDA receptor subunit NR1 in spinal cord of arthritic rats. The following applies: 4 hours, Genistein 1 mM spinal pre-treatment, cycloheximide 100 mg/kg i.p. The format is in vivo, rat. An excerpt: Cycloheximide (100 milligrams per kilogram (mg/kg) intraperitoneal (i.p.) was used in some studies to determine if the alterations observed for the NMDA NR1 receptor subunit could be attributed to newly synthesized NR1 protein.
Twenty-four rats in 3 separate groups were used for immunocytochemical studies. One group of rat (n=8) was a naive control. The other 2 groups (n=16) of rats received surgical placement of the microdialysis fiber placement. On the day after microdialysis fiber placement, the animals were treated spinally with either Genistein (1 mM) or vehicle (50% DMSO in aCSF) for 1.5 hours (n=8 for each group). Then the left knee joint of all sixteen rats was injected with 0.1 ml of kaolin and carrageenan.
Animals were anesthetized and transcardially perfused with a brief warm saline rinse followed by fixative solution (4% paraformaldehyde in 0.1 M phosphate buffer, pH 7.4). The tissues were soaked overnight in 30% buffered sucrose and cut at 30 microns on a sliding microtome. For light microscopy, the tissues from animals (n=8) were permeabilized with a 50% buffered ethanol treatment. Tissue sections were then stained immunocytochemically for glutamate receptor subunit NR1 and phospho-NR1. Primary antibodies to be used for staining include anti-NMDA NR1 NMDA receptor (0.5–1 milligrams per milliliter (mg/ml)) purchased from Chemlcon Inc. (Pittsburgh, Pa.). Other neurotransmitter and receptor primary antibodies against NMDA NR2C, mGluR1, and mGluR5 were used as stain specificity controls. The primary antibodies were diluted in phosphate buffered saline (PBS, pH 7.6) with 0.1% BSA for overnight incubation on the spinal cord tissues. After washing in PBS, the tissue sections were incubated in the appropriate secondary antibody, either anti-mouse or anti-rabbit IgG (1:100, 30 minutes) and in avidin-biotin complex (ABC, 1:100, Vector Laboratories, Burlingame, Calif.). Sections were reacted with diaminobenzidine (DAB) solution (1.5 mg/ml) as the chromogen and peroxide (0.5 mg/ml) to produce a dense reaction product. To further intensify the reaction product particularly for visualization of nuclear rings, some tissues were reacted with colloidal gold conjugated IgG and reacted with a silver chloride solution to produce an intense black reaction product (Takizawa et al., J. Histochemistry & Cytochemistry, 42, 1615–1623 (1994)).
Immunocytochemical controls included sections processed in the absence of the primary or secondary antibody or ABC reagents. The specificity of the transmitter antibodies was confirmed by appearance of a single band by Western blot. In addition to use of the C-terminus NR1 antibody from ChemIcon, an antibody directed to the N-terminus of the NR1 protein was used as control (1 mg/ml; BD PharMingen, San Diego, Calif.). […]

Assay [2] relates to TNFα. Nature of the assay: TNFα release by ELISA from SW982 synovial cells treated with NMDA and ACPD. Particulars: 24 hours, NMDA (5 mM) and ACPD (5 mM), K252a (100 nM). Type of assay: cell-based, human. On the procedure:
The cultured cell lines used in these studies were the human neuroblastoma clonal line, SHSY5Y, and the human synovial sarcoma clonal line, SW982, both available through the American Tissue Type Culture Collection (item number CRL 2266 and HTB-93, respectively). Cells were grown in Dulbecco's Modification of Eagles Medium (DMEM) without L-glutamine, with 4.5 grams/Liter glucose, and with 10% bovine fetal serum in a tissue culture incubator at 37° C. in a gaseous mixture of O2/CO2. Cells were routinely split as necessary to maintain proper cell density. Cells were removed from plates by adding TRYPSIN/EDTA in Hank's Balanced Salt solution. After cell counts, approximately 10,000 cells were plated per well in a culture dish. For experiments, the cells were plated into 35 mm Petri dishes or 6- or 24-well plates as needed.
For detection of released Tumor Necrosis Factor alpha (TNFα) and some western blot experiments, cells were exposed to the two glutamate agonists NMDA (5 mM) and ACPD (5 mM), in the presence or absence of the tyrosine kinase inhibitors Genistein […] or K252a (100 nM). […]
The release of the inflammatory mediator and initiator of inflammatory cascades, TNFα was measured by ELISA using a commercially available kit (R&D Quantikine, Catalog Number DTA50) specific for human TNFα. […]
(In general: In an ELISA, binding on a coated surface is turned into a signal by an enzyme label.)

Assay [3] concerns rat arthritis model. Nature of the assay: Paw withdrawal latency (PWL) to radiant heat in rat kaolin/carrageenan knee joint inflammation model. The format is in vivo. Particulars: for development of secondary hyperalgesia: spinal microdialysis pre-treatment, 4 hours after induction of arthritis. On the procedure:
All studies followed the guidelines of the Institute Animal Care and Use Committee, in accordance with the guidelines of the National Institutes of Health. All animals were hosted in a room with a constant ambient temperature of 22° C. and 12 hour light/dark cycle with free access to food and water. Eighty-five Sprague-Dawley rats (250–300 grams) total were used in experiments conducted for biochemical, behavioral, and immunocytochemistry studies. […] On Day 2 baseline behavioral testing was followed by infusion of agents for 1.5 hours (pretreatment) prior to induction of knee joint inflammation under brief anesthesia. Behavioral testing was repeated 4 hours after induction of joint inflammation. Anesthetized animals were either transcardially perfused with aldehydes for immunohistochemical studies or fresh, frozen tissues collected for biochemical studies.
A microdialysis fiber was implanted into the spinal dorsal horn of anesthetized rats (sodium pentobarbital, 50 mg/kg) one day prior to the induction of arthritis according to the procedure of Skilling et al. (J. Neurochem., 51:127–132 (1988)), as described in Sluka et al. (Neurosci. Lett., 145:141–144 (1992)). Briefly, a small midline incision was made in the skin over the T12 vertebral level. The vertebrae were cleared of muscle and two 1 millimeter (mm) holes were drilled in the lateral aspect of both sides of the T12 vertebrae to expose the L4 spinal segment. A microdialysis fiber ([…], 45,000 MW cut-off, Hospal, AN69, Hospal Industrie, Meyzieu, France), was passed transversely across the deep dorsal horn and stabilized with dental cement. The microdialysis fiber was then passed through the holes in the vertebrae and transversely through the dorsal horn of the spinal cord. A 2 mm section of the microdialysis fiber lies in the dorsal horn at the level of L3–4 segment. The tubing was coated with epoxy except for a permeable portion passing through the spinal grey matter. The microdialysis fiber was connected to PE20 tubing (Becton Dickinson and Company, San Mateo, Calif.) which was tunneled under the skin to the nape of the neck. Alternatively as a systemic control for drug administration, the microdialysis fiber was implanted only in the subcutaneous tissue over the back muscle and tunneled to the neck. Artificial cerebrospinal fluid (aCSF) was made as described by Sorkin et al. (J. Neurosci. Methods, 23, 131–138 (1988)) and was infused (5 microliters/minute) for 1.5 hours and then the tube was heat-sealed for use on the following day.
Dose response curves were generated for Genistein with animals receiving Genistein spinally at concentration of 0.2 mM (n=3), 0.5 mM (n=3), 1 mM (n=9), and 2 mM (n=3). Animals received Lavendustin A or B spinally at concentrations of 0.1 mM (n=3), 0.5 mM (n=3), and 1 mM (n=5) as a positive and negative control for Genistein. […] Daidzein was tested at a dose of 1 mM (n=3). […] Eight additional animals received the vehicle, 50% DMSO in aCSF, as a control.
(§1) An acute inflammatory response restricted to the knee joint can be induced by the injection of 3% kaolin and 3% carrageenan (in sterile saline; 0.1 ml; pH 7.4) into the joint cavity while the animal is briefly anesthetized with sodium methohexital (Brevital, 60 mg/kg, i.p.). Kaolin and carrageenan were obtained from Fisher Scientific, St. Louis, Mo. The knee joint is flexed manually until the rat awakes (approximately 5–10 minutes). In this arthritis model in the awake rat, localized joint swelling, as well as limping and guarding of the limb, are well developed at 4 hours (Sluka et al., Pain, 59, 95–100 (1994)) when behavioral testing begins.
Fifty-five rats were used for behavioral studies. Four hours after induction of the arthritis, the joint is swollen and increased withdrawal responses to radiant heat and spontaneous guarding of the limb were noted. The increased responsiveness to noxious stimuli indicates the presence of secondary hyperalgesia. […]

Assay [4] has as its system rat arthritis model. Nature of the assay: Knee joint circumference and joint temperature in kaolin/carrageenan knee joint inflammation model. Type of assay: in vivo. Particulars: 4 hours after kaolin/carrageenan; spinal pre-treatment. On the procedure:
as §1
Knee joint circumference is measured in centimeters (cm) with a flexible tape measure around the center of the knee joint while the joint is held in extension as done with patients in the clinical setting as an indication of increases in joint volume. The knee joints of anesthetized rats are measured before (baseline) and four hours following injection of the knee joint with kaolin and carrageenan.
Temperature readings were documented numerically with a temperature probe after the rat is reanesthetized with sodium pentobarbital (50 mg/kg, i.p.) just prior to perfusion with aldehydes for histological preservation. Comparative temperature differences were made between the baseline temperature and the temperature four hours after induction of inflammation.

Assay [5] has as its system NMDA currents. Particulars: patch clamp studies; cited from earlier work.

In the case of `C[C@@H]1C[C@@H]([C@H](O)CC2CC(=O)NC(=O)C2)C(=O)[C@@H](C)C1` [Cycloheximide], the “staining for NR1 in spinal cord” value in assay [1] is given as “did not totally reduce the staining to baseline”; in assay [1] (listed as cycloheximide), “reduced the increase in NR1 staining by about half”.
Turning to `COC(=O)[C@@]1(O)C[C@H]2O[C@]1(C)n1c3ccccc3c3c4c(c5c6ccccc6n2c5c31)C(=O)NC4` [K252a], the “NMDA/ACPD-promoted release of TNFα” value in assay [2] was “completely abolished”.
As to `O=C(O)c1cc(N(Cc2ccccc2O)Cc2cc(O)ccc2O)ccc1O` [Lavendustin A], the “most effective dose in pre-treatment animals” value in assay [3] (concentration inside the microdialysis fiber, spinal administration) stood at 0.5 mM. For the same compound, the “PWL decrease induced by knee joint inflammation” value in assay [3] (spinal microdialysis pre-treatment 1.5 hours, PWL to radiant heat 4 hours after kaolin/carrageenan) was “significantly (p<0.05 versus 4 hours vehicle group) attenuated the PWL decreases”. In addition, the “development of secondary hyperalgesia” value in assay [3] is given as “significantly abrogated the development of secondary hyperalgesia”. Moreover, in assay [4], the joint circumference entry is recorded as “expected increases” and the joint temperature result is listed as “expected increases”. The “effect on NMDA currents” value in assay [5] is “reversibly depresses NMDA currents”.
Regarding `O=C(O)c1cc(N(Cc2ccccc2O)Cc2ccccc2O)ccc1O` [Lavendustin B], the “development of secondary hyperalgesia” value in assay [3] is “ineffective in altering the nociceptive outcome of knee joint inflammation”.
